Measured values reported in patent US20260034192A1 (University of Saskatchewan, priority 2022, published 2026).
Where “and” joins values, the source holds several entries; their conditions need not be identical. Identical values can stand only once. Marks after values point to notes of the source that are not given here. Square brackets hold non-standard residues; d marks the D form. Peptide text beside a SMILES is read from it. dPhe(4-Cl) = N[C@H](Cc1ccc(Cl)cc1)C(=O)O; d2Nal = N[C@H](Cc1ccc2ccccc2c1)C(=O)O; dCit = NC(=O)NCCC[C@@H](N)C(=O)O; d3Pal = N[C@H](Cc1cccnc1)C(=O)O

Key:
mature Angus heifers = assay: Cetrorelix versus estradiol benzoate synchronization protocol with AI, random day of cycle (Example 7); type: in vivo, cattle
Protocol: This experiment was conducted on 38 mature Angus heifers at the Federal University of Santa Maria in Brazil. Heifers on a random day of the cycle (defined as Day 0) were divided into 2 groups (n=19 per group) and treated with a single i/m injection of 3 mg cetrorelix or with estradiol benzoate (1 mg i/m). A progesterone-releasing device (CIDR) was placed in the vagina of heifers at this time. Eight days after the cetrorelix or estradiol treatments, heifers were given 500 ug cloprostenol (prostaglandin analog) i/m injections and the CIDR device was removed. […] Heifers were given 250 ug gonadorelin acetate (GnRH analog) i/m injection at the time of artificial insemination. […] Pregnancy diagnosis was done 29-30 days after artificial insemination.

[1] = tested on: Brahman x Angus cross beef post-partum cows; assay: Field trial of fixed-time AI after cetrorelix versus estradiol protocol (Example 8); type: in vivo, cattle
Protocol: This field trial was conducted by a faculty member of the Federal University of Santa Maria at a client beef farm in Brazil in December 2022. A total of 216 Brahman x Angus cross beef post-partum cows were used for this experiment. Cows were divided into two treatment groups ([…]) and were either given cetrorelix 3 mg i/m or estradiol benzoate on a random day of the cycle (defined as Day 0). An intravaginal progesterone device (CIDR) was placed in all cows on Day 0. The CIDR devices were removed on Day 8 and animals were given prostaglandin F2a analog and equine choriogonadotropin (eCG). Fixed-time artificial insemination was done 54 hrs after CIDR removal and animals were given GnRH at this time. Pregnancy diagnosis was performed on Day 30 after artificial insemination. Transrectal ultrasound examinations were performed on Day 0, Day 8, Day 10 and Day 40.

alpacas = assay: Alpaca random day study, single Cetrorelix injection (Example 3); type: in vivo; details: for Duration from treatment to next wave emergence, mean / Variance of duration from treatment to wave emergence (synchrony): alpacas, n = 15, single i/m 1.5 mg on random day of wave
Protocol: Methods: Ultrasonographic methods and follicular endpoint recording were similar to those described in Example 2. Follicular endpoints were obtained from alpacas (n=15) before and after treatment, therefore each animal acts as its own control. A fixed calendar day (July 16) was pre-assigned for Cetrorelix treatment. Daily transrectal ultrasonography was performed (n=15 alpacas) from May 31 to June 16. This examination period was used to record the variance in wave emergence from a fixed calendar date (May 31) without giving treatment (control period). Animals were at unknown/random day of the wave at the beginning of this 17-day time-window (i.e., longer than one natural inter-wave interval); therefore, all animals were expected to have at least one wave emergence encompassing this period. All alpacas were treated with a single intramuscular injection of 1.5 mg (3 mL) Cetrorelix acetate on July 16 and daily ultrasound examinations continued from the day of treatment until Day 3 after the next (post-treatment) wave emergence (treatment period). Synchrony of wave emergence was compared between the control period and the treatment period.
Statistical analyses: A Proc Mixed repeated measures analysis of variance (SAS version 9.4) was performed to compare serial data (follicle size and follicle numbers changes over days) and ANOVA or paired T-test were used for single-point numerical measurements. Count data were compared using Fisher's Exact test. Synchrony of the wave emergence was compared using Barlett's and Levene's tests of homogeneity of the variance.

bovine pituitary cells = assay: GnRH-induced LH secretion of bovine pituitary cells in vitro (Example 9); type: cell-based; details: 300 μg cetrorelix, 340 μg Degarelix, 300 ug Abarelix, 130 μg Relugolix
Protocol: Methods: The heads of mature, non-pregnant cows (n=4) were collected from a local abattoir and the pituitary glands were dissected within 60 minutes of slaughter. Immediately following the dissection, the pituitaries were submerged into ice-cold collection medium. The pituitaries were washed 3 times in collection media and the neurohypophysis was dissected from the adenohypophysis. Using a scalpel, the adenohypophysis (anterior pituitary) was sliced into 1 mm×1 mm pieces and transferred to a 50 mL falcon tube containing DMEM medium with 0.5% BSA. The tissue pieces were washed by manually agitating the tube for 1 minute. The tissue pieces were allowed to settle to the bottom of the tube, then the supernatant was discarded. The macerated pieces were transferred to a 15 mL falcon tube with the dissociation medium and incubated at 37° C. for 60 minutes. Every 10 minutes the tube was vortexed for 1 minute to ensure the tissue was completely dissociated. The dissociation media was inactivated using DMEM with 10% SFB then manually agitating the tube for 1 minute. The dissociated cells were placed in a 40 μm cell strainer to remove the undigested tissue and placed into two 15 mL falcon tubes. The cells were centrifuged at 200×g for 10 minutes and the supernatant was discarded. The cells were washed three times by resuspending in DMEM solution with red blood cell lysing buffer followed by centrifuged at 200×g for 10 minutes. Then the cells were washed with DMEM solution and centrifuged at 200×g for 10 minutes. Following the last centrifugation, the cells were resuspended in DMEM, and the trypan blue test was used to determine the cell count and assess viability. DMEM with 10% fetal bovine serum (FBS) was treated with 10% charcoal-dextran and passed through a 0.2 μm filter. The cells were then plated in a 24-well tissue culture plate with a concentration of 1×10^6 viable cells per well and incubated at 37° C. for 24 hours. The following day, to starve the cells, the culture media was replaced with DMEM without FBS and left to incubate for another 24 hours.
Treatments: Based on the results from the pilot study, the selected concentration for Cetrorelix (cetrorelix acetate) was 300 μg. The cetrorelix was dissolved in trace levels of DMSO then dissolved in ultrapure water. To standardize the treatments, the nanomole concentration of each GnRH antagonist were matched with the cetrorelix nanomole concentration. The final concentration used for further experiments were: 300 μg for cetrorelix, 340 μg for Degarelix (Degarelix acetate), 300 ug for Abarelix (Abarelix acetate). Both degarelix and abarelix were dissolved ultrapure water. The equivalent Relugolix nanomole concentration was 130 μg which was dissolved in methanol. Treatment cells were preincubated for 60 minutes with either Cetrorelix, Degarelix, Relugolix or Abarelix. Following the preincubation, the cells were incubated for 30 minutes with either 1 nM or 10 nM of GnRH (Gonadorelin, Fertagyl, Merck Animal Health). GnRH doses were based on pituitary study by Paolicchi et al. 1999). The media were collected and centrifuged at 200×g for 10 minutes to remove the cells. Positive (Control) group was only treated with 1 nM and 10 nM of GnRH to determine the maximum LH secretion. LH concentrations in the culture medium was measured by a commercial bovine specific ELISA kit and reported as mIU/ml of medium.

[2] = after single injection of 0.25 mg in women; cited from earlier work
[3] = 3 mg cetrorelix or 1 mg estradiol benzoate i/m
[4] = 30 days after fixed-time artificial insemination

## CC(=O)N[C@H](Cc1ccc2ccccc2c1)C(=O)N[C@H](Cc1ccc(Cl)cc1)C(=O)N[C@H](Cc1cccnc1)C(=O)N[C@@H](CO)C(=O)N[C@@H](Cc1ccc(O)cc1)C(=O)N[C@H](CCCNC(N)=O)C(=O)N[C@@H](CC(C)C)C(=O)N[C@@H](CCCNC(=N)N)C(=O)N1CCC[C@H]1C(=O)N[C@H](C)C(N)=O [Cetrorelix, N-acetyl-3-(2-naphthyl)-D-alanyl-4-chloro-D-phenylalanyl-3-(3-pyridyl)-D-alanyl-L-seryl-L-tyrosyl-D-citrullyl-L-leucyl-L-arginyl-L-prolyl-D-alaninamide] (Ac-[d2Nal][dPhe(4-Cl)][d3Pal]SY[dCit]LRP[dA]-NH2)
Mature Angus heifers; 3 mg cetrorelix i/m
  Heifers showing estrous behavior, compared with estradiol-progesterone treatment: greater proportion
Mature Angus heifers; [3]
  Pregnant/Double AI: 7/9
  Pregnant/Double AI, percent: 78%
  Pregnant/Single AI: 8/10
  Pregnant/Single AI, percent: 80%
Mature Angus heifers; cetrorelix protocol
  Ovulations that occurred between 72 to 96 hr after prostaglandin injection: 90%
Mature Angus heifers; random day of cycle, 3 mg cetrorelix i/m or 1 mg estradiol benzoate i/m, CIDR 8 days
  Pregnant/Total, percent (pregnancy rate): 79%
Mature Angus heifers; random day of cycle, 3 mg cetrorelix i/m or 1 mg estradiol benzoate i/m, CIDR 8 days, PGF, GnRH at AI
  Pregnant/Total: 15/19
[1]; [4]
  Conception rate: Percent: 42.6%
  Conception rate: Pregnant/AI: 46/108*
[1]; 30 days after fixed-time artificial insemination, listed as cetrorelix
  Conception rate: Percent: 42.6%
[1]; cetrorelix 3 mg i/m or estradiol benzoate on Day 0, CIDR removal Day 8, in mm
  Size of the dominant follicle on Day 8 (at PGF): 11.04 ± 0.48
[1]; cetrorelix 3 mg i/m or estradiol benzoate on Day 0, in mm
  Size of the dominant follicle on Day 10 (at AI): 12.72 ± 0.65
alpacas
  Duration from treatment to next wave emergence, mean: 5.33 ± 0.70 days and 5.33 days
  Variance of duration from treatment to wave emergence (synchrony): 7.38
alpacas; listed as Cetro
  Duration from treatment to next wave emergence, mean: 5.33 days
  Variance of duration from treatment to wave emergence (synchrony): 7.381
alpacas; listed as cetrorelix
  Duration from treatment to next wave emergence, mean: about 5.33±0.70 days
alpacas; individual alpacas, single i/m injection of 1.5 mg Cetrorelix on random day of wave
  Duration from Treatment to Wave Emergence: 11 days and 3 days (2×) and 4 days (6×) and 9 days and 1 days and 6 days and 8 days (2×) and 7 days
Bovine pituitary cells; challenged with 1 nM GnRH 30 minutes after 60 minutes preincubation
  LH conc in medium: 0.09 mIU/mL
Bovine pituitary cells; challenged with 10 nM GnRH 30 minutes after 60 minutes preincubation
  LH conc in medium: 0.50 mIU/mL
[2]
  Elimination half-life: 5 h
